Data reported in patent US12599128B2, “Composition and method for improving agronomic traits of a plant” (THE BOARD OF TRUSTEES OF THE UNIVERSITY OF ILLINOIS, priority 2024, dated 2026).

How the values were obtained:
Assay type in all cases: in vivo
[1] = tested on: soybean plants (shoot apical meristem); experiment: Field trial 1: soybean seed production after spraying the shoot apical meristem
Experimental: (§1) FIG. 1 provides an example of an increase in soybean seed production following the removal of apical dominance by spraying with a double pass of 0.1M methyl decanoate (199.0±14.14 seeds/plant on average) at the V5 stage of growth compared to untreated controls (160.47±5.33 seeds/plant on average) conducted in Pleasant Plains, Illinois. […] Asterisks show significance differences at the 0.05 level.
Field trial 1 was conducted in Pleasant Plants, Illinois. A single soybean variety was used in the field trial. The soybean variety was planted in 20 plots. Each plot was composed of 8 rows of plants spaced 30 inches apart and was 50 feet long by 20 feet wide. Soybeans were treated with 0.10 M methyl decanoate spray. An undiluted surfactant, polyoxyethylene sorbitan monolaurate, was added in equal weight to the fatty ester. Additional spray was applied by completion of a second pass with 0.10 M methyl decanoate spray. The second pass was completed immediately after the initial treatment of each row to saturate the apical meristem.
Soybean plants were sprayed using an individual chemical spray backpack. The plants were sprayed with approximately 2.5 gallons/1000 sq feet of 0.1 M (or an equivalent of 110 gallons/acre) with the double pass. Soybean plants were sprayed with methyl decanoate at the V5 growth stage.
The overall experiment was designed to distribute untreated control plots and mechanically clipped plants at the same growth stage with the methyl decanoate treated variety across the test field.

[2] = tested on: soybean plants (shoot apical meristem); experiment: Field trial 2: soybean seed production after spraying the shoot apical meristem
Experimental: FIG. 2 provides an example of an increase in soybean seed production following the removal of apical dominance by spraying with a double pass of 0.1M methyl decanoate (220.6±21.96 seeds/plant on average) at the V3 stage of growth compared to untreated controls (147.88±13.59 seeds/plant on average) conducted in Mt. Pulaski, Illinois. […] Asterisks show significance differences at the 0.05 level, + indicates a marginally significant difference at <0.10.
Field trial 2 was conducted at GroAlliance in Mt Pulaski, Illinois and planted with a soybean variety. Soybean plants were treated with a spray containing 0.10 M methyl decanoate and polyethylene sorbitan monolaurate. Soybean plants were sprayed using individual chemical backpack spray units. The soybean plants were treated with methyl decanoate at or between the growth stages of V3 and V4.
The test field was subdivided into plots with the dimensions of five rows by 10 feet. Two plots were designated for each soybean variety for spray treatment and distributed geographically across the full test field. Untreated control plots and mechanically clipped plants at the same growth stage were adjacent to the test plot areas.

[3] = tested on: soybean plants (shoot apical meristem); experiment: Field trial 3: soybean seed production after spraying the shoot apical meristem
Experimental: as §1, with “FIG. 3” for “FIG. 1”, “decanoate (97.85±4.43” for “decanoate (199.0±14.14”, “the V4-V6” for “the V5”, “controls (79.81±3.09” for “controls (160.47±5.33”, “in Lowell, Indiana.” for “in Pleasant Plains, Illinois.”
Field trial 3 was conducted in Lowell, Indiana and a single soybean variety was tested. Soybean plants were treated with a double pass of methyl decanoate at a concentration of 0.10 M. The methyl decanoate spray contained an undiluted surfactant, polyoxyethylene sorbitan monolaurate, that was added in equal weight to the fatty ester.
Soybean plants were treated the methyl decanoate spray using a backpack spray unit. Soybeans were sprayed in between growth stages V4-V6. The test plots were 21 rows by 50 feet.

Structure (SMILES): CCCCCCCCCC(=O)OC [methyl decanoate]
- seed yield compared to untreated control plants (in words) ([1]; 0.10 M spray with polyoxyethylene sorbitan monolaurate, V5 growth stage): increased seed yield
- higher seed production than the untreated control ([1]; double pass of 0.1M spray at V5 stage, Pleasant Plains, Illinois, F=3.33, p=0.046): 24%
- soybean seed production (seeds/plant on average) ([1]; double pass of 0.1M spray at V5 stage, Pleasant Plains, Illinois, untreated controls 160.47±5.33): 199.0±14.14 seeds/plant
- seed yield compared to untreated control plants (in words) ([2]; 0.10 M spray with surfactant, at or between V3 and V4): increased seed yield
- higher seed production than the untreated control ([2]; double pass of 0.1M spray at V3 stage, Mt. Pulaski, Illinois, F=2.74, p=0.084): 38.4%
- soybean seed production (seeds/plant on average) ([2]; double pass of 0.1M spray at V3 stage, Mt. Pulaski, Illinois, untreated controls 147.88±13.59): 220.6±21.96 seeds/plant
- seed yield compared to untreated control plants (in words) ([3]; double pass 0.10 M spray with polyoxyethylene sorbitan monolaurate, V4-V6): increased seed yield
- higher seed production than the untreated control ([3]; double pass of 0.1M spray at V4-V6 stage, Lowell, Indiana, F=5.63, p=0.005): 22.6%
- soybean seed production (seeds/plant on average) ([3]; double pass of 0.1M spray at V4-V6 stage, Lowell, Indiana, untreated controls 79.81±3.09): 97.85±4.43 seeds/plant
